Assay results published in patent US20050148633A1 (priority 2003, published 2005).

Tested on: RBL cells
Experiment: Inhibition of degranulation in RBL cells
Format: cell-based
Details: Rattus norvegicus, anti-DNP IgE / anti-IgE, read-out: concentration at which 50% of degranulation is inhibited
Protocol: Procedure: • The day before the assay was performed, RBL cells, that had been grown to confluence in a 96 well plate, were incubated at 37° C. for at least 2 hours. The medium was replaced in each well with 100 μL of fresh medium containing of anti-DNP IgE.
On the following day, the cells were washed once with PRS (2.6 mM glucose and 0.1% BSA) and 160 μL of PRS was added to each well. The test compound was addded to a well in a 20 μL solution at 10× of the desired concentration and incubated for 20 to 40 minutes at 37° C. 20 μL of 10× mouse anti-IgE (10 μL/mL). Maximum degranulation occurred between 15 to 40 minutes after addition of anti-IgE.

SMILES	IC50 [nM]
COc1ccc(CCCOC(Cn2ccnc2)c2ccc(OC)cc2)cc1 (centres unmarked) [SKF96365, reference compound]	> 20000

Tested on: IL-2 production
Experiment: Inhibition of IL-2 production in PHA-activated Jurkat cells (ELISA)
Format: cell-based
Details: Homo sapiens, PHA 2.5 μg/mL, 20 hours, value bins
Protocol: Jurkat cells were placed in a 96 well plate (0.5 million cells per well in 1% FBS medium) then test compounds of this invention were added at different concentrations. After 10 minutes, the cells were activated with PHA (final concentration 2.5 μg/mL) and incubated for 20 hours at 37° C. under CO2. The final volume was 200 μL. Following incubation, the cells were centrifuged and the supernatants collected and stored at −70° C. prior to assaying for IL-2 production. A commercial ELISA kit (IL-2 Eli-pair, Diaclone Research, Besancon, France) was used to detect production of IL-2, from which dose response curves were obtained. The IC50 value was calculated as the concentration at which 50% of maximum IL-2 production after stimulation was inhibited versus a non-stimulation control.

SMILES	IC50 [nM]
O=C(Nc1ccc(-c2ccccc2C(F)(F)F)cc1)c1cnccc1C(F)(F)F [Compound 12, 4-Trifluoromethyl-N-(2′-trifluoromethyl-biphenyl-4-yl)-nicotinamide]	100 to 500
COc1ccc(C(C)=O)cc1-c1ccc(NC(=O)c2snnc2C)cc1 [Compound 71, 4-methyl-[1,2,3]-thiadiazole-5-carboxylic acid (2′-methoxy-5′-acetylbiphenyl-4-yl)-amide]	100 to 500
Cc1ncccc1C(=O)Nc1ccc(-c2cc(C(F)(F)F)ccc2C(F)(F)F)cc1 [Compound 60, 2-methyl-pyridine-3-carboxylic acid (2′,5′-bis-trifluoromethyl-biphenyl-4-yl)-amide]	100 to 500
COc1ccccc1C(=O)Nc1ccc(-c2cc(C(F)(F)F)ccc2C(F)(F)F)cc1 [Compound 38, N-(2′,5′-bis-trifluoromethyl-biphenyl-4-yl)-2-methoxy-benzamide]	100 to 500
O=C(Nc1ccc(-c2c(F)cccc2C(F)(F)F)cc1)c1cccc(F)c1F [Compound 22, 2,3-Difluoro-N-(2′-fluoro-6′-trifluoromethyl-biphenyl-4-yl)-benzamide]	100 to 500
Cc1ccsc1C(=O)Nc1ccc(-n2c(C(F)(F)F)nnc2C(F)(F)F)cc1 [Compound 34, 3-Methyl-thiophene-2-carboxylic acid-(4-(3,5-bis-trifluoromethyl-[1,2,4]triazol-4-yl)-phenyl)-amide]	100 to 500
Cc1cnccc1C(=O)Nc1ccc(-c2ccccc2C(C)C)cc1 [Compound 77, 3-methyl-pyridine-4-carboxylic acid (2′-isopropyl-biphenyl-4-yl)-amide]	100 to 500
COc1ccc(Cl)cc1-c1ccc(NC(=O)c2cc(F)c(F)cc2F)cc1 [Compound 84, N-(2′-methoxy-5′-chloro-biphenyl-4-yl)-2,4,5-trifluorobenzamide]	< 100
Cc1ccc(C)c(-c2ccc(NC(=O)c3ccncc3C)cc2)c1 [Compound 70, 3-methyl-pyridine-4-carboxylic acid (2′,5′-dimethylbiphenyl-4-yl)-amide]	100 to 500
O=C(Nc1ccc(-c2cc(C(F)(F)F)ccc2C(F)(F)F)cc1)c1cc(F)ccc1F [Compound 28, N-(2′,5′-Bis-trifluoromethyl-biphenyl-4-yl)-2,5-difluoro-benzamide]	< 100
COc1ccc(Cl)cc1-c1ccc(NC(=O)c2ccncc2C)cc1 [Compound 65, 3-methyl-pyridine-4-carboxylic acid (2′-methoxy-5′-chlorobiphenyl-4-yl)-amide]	< 100
Cc1nnsc1C(=O)Nc1ccc(-c2cc(OC(F)(F)F)ccc2N(C)C)cc1 [Compound 73, 4-methyl-[1,2,3]-thiadiazole-5-carboxylic acid {2′-(N,N-dimethylamino)-5′-trifluoromethoxybiphenyl-4-yl}-amide]	< 100
O=C(Nc1ccc(-c2ccccc2C(F)(F)F)cc1)c1ccncc1 [Compound 8, N-(2′-Trifluoromethyl-biphenyl-4-yl)-isonicotinamide]	100 to 500
COc1cccc(C(=O)Nc2ccc(-c3cc(C(F)(F)F)ccc3C(F)(F)F)cc2)c1C [Compound 56, N-(2′,5′-bis-trifluoromethyl-biphenyl-4-yl)-2-methyl-3-methoxybenzamide]	< 100
Cc1c(F)cccc1C(=O)Nc1ccc(-c2cc(C(F)(F)F)ccc2C(F)(F)F)cc1 [Compound 55, N-(2′,5′-bis-trifluoromethyl-biphenyl-4-yl)-2-methyl-3-fluorobenzamide]	< 100
CCOc1ccc(Cl)cc1-c1ccc(NC(=O)c2ccncc2C)cc1 [Compound 82, 3-methyl-pyridine-4-carboxylic acid (2′-ethoxy-5′-chlorobiphenyl-4-yl)-amide]	< 100
O=C(Nc1ccc(-c2ccccc2C(F)(F)F)cc1)c1ccncc1F [Compound 1, 3-Fluoro-N-(2′-trifluoromethyl-biphenyl-4-yl)-isonicotinamide]	100 to 500

Results, then the compound that gave them:

IC50 [nM]	SMILES
< 100	Cc1ccc(C(F)(F)F)c(-c2ccc(NC(=O)c3c(F)cccc3F)cc2)c1 [Compound 126, N-(2′-trifluoromethyl-5′-methyl-biphenyl-4-yl)-2,6-difluoro-benzamide]
< 100	COc1ccc(OC)c(-c2ccc(NC(=O)c3ccncc3C)cc2)c1 [Compound 63, 3-methyl-pyridine-4-carboxylic acid (2′,5′-dimethoxy-biphenyl-4-yl)-amide]
< 100	Cc1cc(C)c(-c2ccc(NC(=O)c3cccc(F)c3F)cc2)cc1C [Compound 52, N-(2′,4′,5′-trimethyl-biphenyl-4-yl)-2,3-difluorobenzamide]
< 100	Cc1ccc(C)c(-c2ccc(NC(=O)c3cccc(F)c3F)cc2)c1 [Compound 47, N-(2′,5′-dimethyl-biphenyl-4-yl)-2,3-difluorobenzamide]
< 100	O=C(Nc1ccc(-c2ccc(F)cc2C(F)(F)F)cc1)c1cccc(F)c1F [Compound 20, 2,3-Difluoro-N-(4′-fluoro-2′-trifluoromethyl-biphenyl-4-yl)-benzamide]
< 100	CCc1ccccc1-c1ccc(NC(=O)c2ccncc2C)cc1 [Compound 76, 3-methyl-pyridine-4-carboxylic acid (2′-ethyl-biphenyl-4-yl)-amide]
< 100	COc1ccc(C(C)=O)cc1-c1ccc(NC(=O)c2cccc(F)c2F)cc1 [Compound 50, N-(2′-methoxy-5′-acetyl-biphenyl-4-yl)-2,3-difluorobenzamide]
< 100	Cc1c(Cl)cccc1C(=O)Nc1ccc(-c2cc(C(F)(F)F)ccc2C(F)(F)F)cc1 [Compound 54, N-(2′,5′-bis-trifluoromethyl-biphenyl-4-yl)-2-methyl-3-chlorobenzamide]
< 100	Cc1cnccc1C(=O)Nc1ccc(-c2cc(C(F)(F)F)ccc2C(F)(F)F)cc1 [Compound 64, 3-methyl-pyridine-4-carboxylic acid (2′,5′-bis-trifluoromethyl-biphenyl-4-yl)-amide]
< 100	CCN(CC)C(=O)Nc1ccc(-c2cc(C(F)(F)F)ccc2C(F)(F)F)cc1 [Compound 131, N′,N′-diethyl-N-(2′,5′-bis-trifluoromethylbiphenyl-4-yl) urea]
< 100	O=C(Nc1ccc(-c2cc(C(F)(F)F)ccc2C(F)(F)F)cc1)c1c(F)cccc1F [Compound 85, N-(2′,5′-bis-trifluoromethylbiphenyl-4-yl)-2,6-difluorobenzamide]
< 100	Cc1cccc(C(=O)Nc2ccc(-c3cc(C(F)(F)F)ccc3C(F)(F)F)cc2)c1C [Compound 53, N-(2′,5′-bis-trifluoromethyl-biphenyl-4-yl)-2,3-dimethylbenzamide]

Same assay, conditions: Homo sapiens, PHA, bin 500 nM-1 μM

SMILES	IC50 [nM]
O=C(Nc1ccc(-n2c(-c3cccs3)nnc2C(F)(F)F)cc1)c1cccc(F)c1F [Compound 35]	500 to 1000
CCN(CC)C(=O)Nc1ccc(-c2cc(C(F)(F)F)ccc2C(F)(F)F)cc1 [Compound 131, N′,N′-diethyl-N-(2′,5′-bis-trifluoromethylbiphenyl-4-yl) urea]	500 to 1000
O=C(Nc1ccc(-c2cccc(C(F)(F)F)c2)cc1)c1ccncc1F [Compound 3, 3-Fluoro-N-(3′-trifluoromethyl-biphenyl-4-yl)-isonicotinamide]	500 to 1000

Same assay, conditions: Homo sapiens, PHA, bin >1 μM

SMILES	IC50 [nM]
Cc1nc(C)c(C(=O)Nc2ccc(-c3ccccc3C(F)(F)F)cc2)s1 [Compound 11, 2,4-Dimethyl-thiazole-5-carboxylic acid (2′-trifluoromethyl-biphenyl-4-yl)-amide]	> 1000
O=C(Nc1ccc(-c2ccccc2C(F)(F)F)cc1F)c1cccc(F)c1F [Compound 17, 2,3-Difluoro-N-(3-fluoro-2′-trifluoromethyl-biphenyl-4-yl)-benzamide]	> 1000
Cc1nc(C(=O)Nc2ccc(-c3ccccc3C(F)(F)F)cc2)c(C(F)(F)F)o1 [Compound 13, 2-Methyl-5-trifluoromethyl-oxazole-4-carboxylic acid (2′-trifluoromethyl-biphenyl-4-yl)-amide]	> 1000
O=C(Nc1ccc(-c2ccccc2C(F)(F)F)cc1)c1ccccn1 [Compound 25, Pyridine-2-carboxylic acid (2′-trifluoromethyl-biphenyl-4-yl)-amide]	> 1000
O=C(Nc1ccc(-c2ccccc2C(F)(F)F)cc1)c1cccs1 [Compound 9, Thiophene-2-carboxylic acid (2′-trifluoromethyl-biphenyl-4-yl)-amide]	> 1000
